Measured values: ChEMBL document CHEMBL2401704, “Inhibition of rhodesain as a novel therapeutic modality for human African trypanosomiasis” (J Med Chem, 2013)
Residues, ends and D or L forms follow the SMILES beside them. *: point of attachment. Cbz = O=C(OCc1ccccc1)*; CHN2 = [N-]=[N+]=C*

Assays:
[1] = Inhibition of Trypanosoma brucei recombinant rhodesain
[2] = Inhibition of Trypanosoma brucei rhodesain
Trypanosoma brucei [3] = assay: Antitrypanosomal activity against Trypanosoma brucei; format: functional, organism-based
[4] = tested on: Trypanosoma brucei brucei; assay: Antitrypanosomal activity against blood stream form of Trypanosoma brucei brucei; format: functional, organism-based
Cruzipain = Cruzipain (Trypanosoma cruzi, UniProt P25779); assay: Inhibition of Trypanosoma cruzi cruzain
Cruzipain, sequence (P25779 whole entry): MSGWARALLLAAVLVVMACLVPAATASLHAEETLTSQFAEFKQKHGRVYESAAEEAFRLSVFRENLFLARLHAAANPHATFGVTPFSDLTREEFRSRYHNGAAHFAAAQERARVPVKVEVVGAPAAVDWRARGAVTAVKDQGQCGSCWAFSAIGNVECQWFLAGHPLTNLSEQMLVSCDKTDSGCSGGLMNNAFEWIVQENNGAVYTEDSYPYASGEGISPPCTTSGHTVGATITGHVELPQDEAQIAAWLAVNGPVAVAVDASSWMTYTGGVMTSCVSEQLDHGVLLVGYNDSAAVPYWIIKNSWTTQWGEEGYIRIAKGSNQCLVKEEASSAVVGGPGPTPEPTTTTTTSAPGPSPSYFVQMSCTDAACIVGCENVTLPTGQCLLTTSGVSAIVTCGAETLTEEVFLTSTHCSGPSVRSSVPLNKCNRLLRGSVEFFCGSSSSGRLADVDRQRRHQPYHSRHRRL

[5] = Inhibition of Plasmodium falciparum Falcipain 2
[6] = tested on: Trypanosoma brucei brucei; assay: Antitrypanosomal activity against Trypanosoma brucei brucei; format: functional, organism-based
[7] = tested on: Trypanosoma brucei brucei; assay: Antitrypanosomal activity against procyclic form of Trypanosoma brucei brucei; format: functional; settings: read-out: ED50 (the source's name)
Trypanosoma brucei [8] = assay: Inhibition of Trypanosoma brucei rhodesain assessed as second order rate constant
[9] = Inhibition of cathepsin B (unknown origin); design: species or system Homo sapiens
Papain = target: T1, Papain (Carica papaya, UniProt P00784); assay: Inhibition of papaya papain
T1 sequence (P00784 whole entry): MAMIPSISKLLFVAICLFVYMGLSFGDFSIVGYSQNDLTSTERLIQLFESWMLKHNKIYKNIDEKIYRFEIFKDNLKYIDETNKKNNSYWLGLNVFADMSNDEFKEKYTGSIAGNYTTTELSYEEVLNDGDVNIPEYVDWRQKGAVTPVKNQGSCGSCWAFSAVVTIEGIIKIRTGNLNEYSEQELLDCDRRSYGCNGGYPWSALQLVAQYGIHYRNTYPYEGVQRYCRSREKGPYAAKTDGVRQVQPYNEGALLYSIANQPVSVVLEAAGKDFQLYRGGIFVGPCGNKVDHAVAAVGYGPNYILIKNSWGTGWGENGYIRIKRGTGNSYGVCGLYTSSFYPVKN

Trypsin = Trypsin (Homo sapiens, UniProt P07477+P07478+P35030); assay: Inhibition of trypsin (unknown origin); format: protein assay
Plasmodium falciparum = assay: Antiprotozoal activity against Plasmodium falciparum; format: functional, organism-based
[10] = tested on: Trypanosoma brucei rhodesiense; assay: Antitrypanosomal activity against Trypanosoma brucei rhodesiense; format: functional, organism-based
Rhodesain = Rhodesain (Trypanosoma brucei rhodesiense, UniProt Q95PM0); assay: Inhibition of Trypanosoma brucei rhodesiense rhodesain
Rhodesain, sequence (Q95PM0 whole entry): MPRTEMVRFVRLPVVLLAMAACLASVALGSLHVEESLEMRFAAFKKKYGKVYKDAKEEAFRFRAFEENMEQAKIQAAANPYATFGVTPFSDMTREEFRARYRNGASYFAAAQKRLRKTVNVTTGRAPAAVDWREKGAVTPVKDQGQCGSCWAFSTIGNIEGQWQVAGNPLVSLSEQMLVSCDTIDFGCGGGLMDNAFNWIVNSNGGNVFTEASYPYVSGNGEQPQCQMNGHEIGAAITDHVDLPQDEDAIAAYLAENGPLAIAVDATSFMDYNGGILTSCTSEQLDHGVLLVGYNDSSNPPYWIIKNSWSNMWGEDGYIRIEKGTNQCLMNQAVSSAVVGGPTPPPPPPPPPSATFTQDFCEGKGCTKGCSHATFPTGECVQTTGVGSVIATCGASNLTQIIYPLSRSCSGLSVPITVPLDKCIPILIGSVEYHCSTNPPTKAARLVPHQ

L6 = assay: Cytotoxicity against rat L6 cells; format: cell-based

Question: Which IC50 [1] does the source give for `CN(C#N)N(C)C(=O)[C@H](Cc1ccccc1)NC(=O)c1ccc2c(c1)OCCO2` here?
Answer: 0.14 nM

Question: What does the source list for `C/C(=N\N=C(\N)S)c1cccc(Oc2ccccc2)c1`?
Answer: IC50 [2]: 0.55 µM; IC50 (Trypanosoma brucei [3]): 6 µM

Question: What does the source list for `C/C(=N\N=C(/S)N1CCN(C)CC1)c1cccc(Br)c1`?
Answer: IC50 [2]: 4 µM; IC50 (Trypanosoma brucei [3]): 2 µM

Question: With `C/C(=N\N=C(\N)S)c1cccc(Nc2ccccc2)c1` as the molecule, how does the IC50 [2] read?
Answer: 0.8 µM

Question: And the IC50 (Trypanosoma brucei [3])?
Answer: 8 µM

Question: For `CC(C)C[C@H](NC(=O)c1ccc2c(c1)OCCO2)C(=O)N(C)N(C#N)Cc1ccccc1`, which IC50 [1] is on record?
Answer: 0.33 nM

Question: Which IC50 [4] does the source give for `C[C@H](NC(=O)[C@H](Cc1ccccc1)NC(=O)OCc1ccccc1)C(=O)C=[N+]=[N-]` here?
Answer: 6.1 µM

Question: Which results are given for `CCCc1c(NC(=O)Nc2ccc(OC(F)(F)F)cc2)cnn1-c1ccc(Cl)cc1`?
Answer: IC50 [2]: < 10 µM; IC50 (Cruzipain): < 10 µM

Question: For `N=C(NC(=O)OCc1ccccc1)NC(=O)c1ccc(C(=O)NCc2ccc(NC(=O)OCc3ccccc3)cc2)[nH]1`, which Ki [5] is on record?
Answer: 0.87 µM

Question: And the Ki [2]?
Answer: 0.028 µM

Question: What about the IC50 [6] of the same molecule?
Answer: > 100 µM

Question: Which IC50 [2] does the source give for `C/C(=N\NC(N)=S)c1cccc(/C(C)=N/NC(N)=S)c1` here?
Answer: 0.33 µM

Question: What about the IC50 (Trypanosoma brucei [3]) of the same molecule?
Answer: > 20 µM

Question: With `CC(C)[C@H](NC(=O)c1ccc2c(c1)OCCO2)C(=O)N(C)N(C#N)CCCc1ccccc1` as the molecule, how does the IC50 [1] read?
Answer: 54 nM

Question: What does the source list for `CCCCCN(C#N)N(C)C(=O)[C@H](Cc1ccccc1)NC(=O)OCc1ccccc1`?
Answer: EC50 ([4]; read-out: ED50 (the source's name)): 1.4 µM; EC50 [7]: 0.7 µM; IC50 [1]: 0.06 nM

Question: For `CC(C)C[C@H](NC(=O)c1ccc2c(c1)OCCO2)C(=O)N(C)N(C)C#N`, which IC50 [1] is on record?
Answer: 0.06 nM

Question: Which Ki [5] does the source give for `N=C(NC(=O)OCc1ccccc1)NC(=O)c1ccc(C(=O)NCc2cccc(NC(=O)OCc3ccccc3)c2)o1` here?
Answer: 1.15 µM

Question: And the Ki [2]?
Answer: 0.05 µM

Question: And the IC50 [6]?
Answer: 8.31 µM

Question: For `[N-]=[N+]=CC(=O)[C@H](Cc1ccccc1)NC(=O)[C@H](Cc1ccccc1)NC(=O)OCc1ccccc1` (Cbz-Phe-Phe-CHN2), which IC50 [4] is on record?
Answer: 4.8 µM

Question: With `O=C(N[C@@H](Cc1ccccc1)C(=O)N[C@H](/C=C/S(=O)(=O)Oc1ccccc1)CCc1ccccc1)OCc1ccccc1` as the molecule, how does the K (Trypanosoma brucei [8]) read?
Answer: 3.48 ×10⁸ /M/min

Question: For `O=C1C(=O)N(C(=O)OCc2ccccc2)c2ccccc21`, which IC50 [2] is on record?
Answer: 30 µM

Question: With `CCCCCN(C#N)N(C)C(=O)[C@@H](NC(=O)c1ccc2c(c1)OCCO2)C(C)C` as the molecule, how does the IC50 [1] read?
Answer: 54.6 nM

Question: Which IC50 [9] does the source give for `O=C(Nc1ccc(Cl)cc1)Nc1csc(-c2ccc(C(F)(F)F)cc2)n1` here?
Answer: 10.8 µM

Question: And the IC50 [2]?
Answer: 2 µM

Question: What about the IC50 (Papain) of the same molecule?
Answer: > 50 µM

Question: What about the IC50 (Trypsin) of the same molecule?
Answer: > 50 µM

Question: What about the IC50 (Cruzipain) of the same molecule?
Answer: 1.2 µM

Question: For `CS/C(S)=N/N=C(\C)c1ccccn1`, which IC50 [2] is on record?
Answer: > 20 µM

Question: What about the IC50 (Trypanosoma brucei [3]) of the same molecule?
Answer: 0.3 µM

Question: Which IC50 [2] does the source give for `O=C(NC(=S)Nc1ncccc1OCc1ccccc1)c1cccn1S(=O)(=O)c1ccccc1` here?
Answer: 3.5 µM

Question: What about the IC50 (Cruzipain) of the same molecule?
Answer: 3 µM

Question: For `C[C@H](NC(=O)[C@H](Cc1ccccc1)NC(=O)OCc1ccccc1)C(=O)CCl`, which IC50 [4] is on record?
Answer: 21 µM

Question: Which IC50 [1] does the source give for `CC(C)[C@H](NC(=O)c1ccc2c(c1)OCCO2)C(=O)N(C)N(C)C#N` here?
Answer: 5.4 nM

Question: Which IC50 [1] does the source give for `CN(C(=O)[C@H](Cc1ccccc1)NC(=O)c1ccc2c(c1)OCCO2)N(C#N)CCCc1ccccc1` here?
Answer: 0.24 nM

Question: Which results are given for `N#Cc1nc(N2CCOCC2)nc(N(c2ccccc2F)C2CCCCC2)n1`?
Answer: Ki [5]: 0.025 µM; IC50 (Plasmodium falciparum): > 5 µM; IC50 [10]: 15 µM; Ki (Rhodesain): 0.011 µM; IC50 (L6): 11.4 µM

Question: For `CCOC(=O)c1ccc(NC(=S)NC(=O)c2ccc(Cl)c(Cl)c2)cc1`, which IC50 [9] is on record?
Answer: 10.7 µM

Question: What about the IC50 [2] of the same molecule?
Answer: 2 µM

Question: And the IC50 (Papain)?
Answer: > 50 µM

Question: And the IC50 (Trypsin)?
Answer: > 50 µM

Question: And the IC50 (Cruzipain)?
Answer: 1.9 µM

Question: Which results are given for `C/C(=N\N=C(\N)S)c1ccc(Oc2ccccc2)cc1`?
Answer: IC50 [2]: 8 µM; IC50 (Trypanosoma brucei [3]): 3 µM

Question: With `O=C(N[C@@H](Cc1ccccc1)C(=O)N[C@H](/C=C/S(=O)(=O)Cc1ccccc1)CCc1ccccc1)OCc1ccccc1` as the molecule, how does the K (Trypanosoma brucei [8]) read?
Answer: 5.35 ×10⁷ /M/min

Question: Which Ki [5] does the source give for `CCN(c1nc(C#N)nc(N2CCOCC2)n1)C1CCCCC1` here?
Answer: 0.08 µM

Question: And the IC50 (Plasmodium falciparum)?
Answer: > 5 µM

Question: What about the IC50 [10] of the same molecule?
Answer: 44.1 µM

Question: And the Ki (Rhodesain)?
Answer: 0.1 µM

Question: And the IC50 (L6)?
Answer: 45.5 µM

Question: Which IC50 [1] does the source give for `CC(C)[C@H](NC(=O)c1ccc2c(c1)OCCO2)C(=O)N(C)N(C#N)Cc1ccccc1` here?
Answer: 15.8 nM

Question: For `C/C(=N\N=C(/S)N1CCCCC1)c1cccc(Br)c1`, which IC50 [2] is on record?
Answer: 4 µM

Question: And the IC50 (Trypanosoma brucei [3])?
Answer: 3 µM

Question: For `O=C(NC(=S)Nc1ccc(O)cc1)c1sc2ccccc2c1Cl`, which IC50 [2] is on record?
Answer: < 10 µM

Question: What about the IC50 (Cruzipain) of the same molecule?
Answer: < 10 µM

Question: For `CCCC/C(=N\NC(N)=S)c1ccc(Cl)c(Cl)c1`, which IC50 [10] is on record?
Answer: 0.13 µM

Question: With `CC(C)[C@H](NC(=O)c1ccc2c(c1)OCCO2)C(=O)N(C)N(C#N)CCc1ccccc1` as the molecule, how does the IC50 [1] read?
Answer: 35.1 nM

Question: For `CCCCCN(C#N)N(C)C(=O)[C@H](Cc1ccccc1)NC(=O)c1ccc2c(c1)OCCO2`, which IC50 [1] is on record?
Answer: 1.34 nM

Question: For `N#Cc1nc(N2CCOCC2)nc(N(c2ccccc2)c2ccccc2)n1`, which Ki [5] is on record?
Answer: 0.042 µM

Question: What about the IC50 (Plasmodium falciparum) of the same molecule?
Answer: > 5 µM

Question: What about the IC50 [10] of the same molecule?
Answer: 18.9 µM

Question: And the Ki (Rhodesain)?
Answer: 0.036 µM

Question: And the IC50 (L6)?
Answer: 22 µM

Question: For `C/C(=N\N=C(\N)S)c1ccc(-c2ccccc2)cc1`, which IC50 [2] is on record?
Answer: 0.09 µM

Question: And the IC50 (Trypanosoma brucei [3])?
Answer: 10 µM
